Data set [1] is described as follows: QT interval evaluation in opioid-dependent patients. The format is in vivo, human. Conditions: 60, 120, 180 mg, first 24 hours post administration. As to the method:
Patients' QT intervals were evaluated at regular time points throughout the study.

A short description of data set [2]: Safety and tolerability in healthy volunteers (adverse events, vital signs, ECG). Format: in vivo, human. How it is done:
(§1) Pulse oximetry and capnography data were collected continuously using a GE Carescape B650 monitoring system from 2 hours prior to dosing and until six hours after dosing, and thereafter at 12, 24, 48 and 72 hours post-dosing. Additional oximetry data were collected at 120, 168 and 216 hours. Pupillary miosis was assessed by pupillometry. Dark-adapted pupil diameter was measured in triplicate using a Neuroptics PLR-200 pupillometer under standardized light intensity (<5 lux) pre-dose, and at 2, 4, 6, 12, 24, 48, 72, 96, 120, 168 and 216 hours post-dosing.
(§2) Safety and tolerability of noribogaine were tested in the group of volunteers from Example 1. Cold pressor testing was conducted in 1° C. water according to the method of Mitchell et al. (J Pain 5:233-237, 2004) pre-dose, 6, 24, 48, 72 and 216 hours post-dosing. Safety evaluations included clinical monitoring, recording of adverse events (AEs), safety laboratory tests, vital signs, ECG telemetry from −2 h to 6 h after dosing, and 12-lead electrocardiograms (ECGs) up to 216 hours post-dosing.

Data set [3] can be described thus: Opiate withdrawal scales (COWS, SOWS, OOWS) in opioid-dependent patients. Format: in vivo, human. Conditions: single 120 mg dose, first six hours following dosing. As to the method:
Patients were evaluated based on the Clinical Opiate Withdrawal Scale (COWS), Subjective Opiate Withdrawal Scale (SOWS), and Objective Opiate Withdrawal Scale (OOWS) scoring systems over the period of time between administration of noribogaine (or placebo) until resumption of OST. These scales are outlined in Guidelines for the Psychosocially Assisted Pharmacological Treatment of Opioid Dependence, World Health Organization, Geneva (2009), Annex 10, which is incorporated herein by reference in its entirety. The scales measure the intensity of withdrawal symptoms, based on clinical, subjective, and objective indicia.

Data set [4] can be described thus: Serum noribogaine pharmacokinetics in opioid-dependent patients (Phase IB). As to conditions: 60, 120, 180 mg cohorts.
Data set [5] can be described thus: Time to resumption of opioid substitution treatment (OST) in opioid-dependent patients. The format is in vivo, human.
The nature of data set [6]: Pupillary miosis assessed by pupillometry in healthy volunteers. Format: in vivo, human. As to conditions: 3-60 mg single oral doses vs placebo, up to 216 hours, p>0.9. How it is done: as §1
Summary statistics (means, standard deviations, and coefficients of variation) were determined for each dose group for safety laboratory test data, ECG and pharmacokinetic parameters, and pharmacodynamic variables. Categorical variables were analysed using counts and percentages. Dose-proportionality of AUC and Cmax was assessed using linear regression. The effect of dose on pharmacodynamic parameter values over time was assessed using two-factor analysis of variance (ANOVA). Pairwise comparisons (with Tukey-Kramer adjustment) between each dose group to the placebo were conducted at each time point using the least squares estimates obtained from the ANOVA, using SAS Proc Mixed (SAS ver 6.0).

Data set [7] is described as follows: Cold pressor test (analgesic effect) in healthy volunteers. Format: in vivo, human. Conditions: 3-60 mg single oral doses vs placebo, 1° C. water. As to the method:
Analgesic effect was assessed based on duration of hand immersion in ice water and on visual analog scale (VAS) pain scores upon hand removal from the water bath.
as §2

The mark [8] stands for this setting: 3 mg dose group, healthy volunteers.
The mark [9] stands for this setting: 10 mg dose group, healthy volunteers.
[10] abbreviates: 30 mg dose group, healthy volunteers.

The record followed here is patent publication US9549935B2, “Methods and compositions for treating migraines using noribogaine” (DemeRx, Inc., priority 2014, dated 2017).

“Also recorded” adds a separate entry of the source.

Turning to `CC[C@H]1CC2C[C@H]3c4[nH]c5ccc(O)cc5c4CCN(C2)C13` [Noribogaine, noribogaine], the “QT interval prolongation (ΔQTcl)” value in data set [1] is listed as “dose-dependent increase in QT interval prolongation”. Also, in data set [2] (setting [8]), the “Adverse events, Mild” value was “Dizziness; also recorded: Epistaxis; also recorded: Headache; also recorded: Back pain”; the “Adverse events, Moderate” value is listed as “Headache”; the “number of adverse events reported” value was “five adverse events were reported by two subjects”. Further, in data set [2] (setting [9]), the “Adverse events, Mild” value is “Headache” and the “number of adverse events reported” value is “one adverse event was reported by single subjects”. Further, in data set [2] (setting [10]), the “Adverse events, Mild” value was “Headache” and the “number of adverse events reported” value was “one adverse event was reported by single subjects”. In addition, in data set [2] (3-60 mg, healthy volunteers), the “changes in oximetry, capnography, respiratory rate” value is on record as “no changes in oximetry or capnography, or changes in respiratory rate” and the “changes in vital signs or safety laboratory tests” value is recorded as “no changes in vital signs or safety laboratory tests of note”. Further, in data set [2] (3-60 mg, healthy volunteers, ECG up to 216 hours), the “QTcF values >500 msec” value was “no QTcF values >500 msec at any time”. In data set [2] (all dose groups, healthy volunteers), the “intensity of adverse events” value is recorded as “mild-moderate intensity”. Also, in data set [2] (one subject dosed with 10 mg, 24 hours post-dosing), the “single increase in QTcF” value is more than 60 ms. Besides, the “withdrawal symptoms (COWS, OOWS, SOWS scores)” value in data set [3] is reported as “fewer withdrawal symptoms than the other patients”. Also, the “dose dependence of maximum serum concentration (Cmax)” value in data set [4] is “increased in a dose-dependent manner”. Besides, the “average time to resumption of opioids (OST)” value in data set [5] (single 120 mg dose) is listed as “greater than 20 hours”. In addition, in data set [5] (single 180 mg dose), the “average time to resumption of opioids (OST)” value is “still longer than untreated patients (7 hours, not shown) or those administered 60 mg noribogaine”. Moreover, the “pupillary constriction (dark-adapted pupil diameter)” value in data set [6] is recorded as “no evidence of pupillary constriction”. Besides, in data set [7], the “analgesic effect in the cold pressor test (duration of hand immersion, VAS pain scores)” value is “no analgesic effect”.
